The source of these data is patent US6608086B2, “Dihydropyridines and new uses thereof” (Synaptic Pharmaceutical Corporation, priority 1993, dated 2003).

Data set [1] deals with T1, α1B Human Adrenergic Receptor (Homo sapiens, UniProt P35368).
T1 construct: The entire coding region of α1B (1563 bp); expressed in transfected cells
T1 sequence (P35368 1-520): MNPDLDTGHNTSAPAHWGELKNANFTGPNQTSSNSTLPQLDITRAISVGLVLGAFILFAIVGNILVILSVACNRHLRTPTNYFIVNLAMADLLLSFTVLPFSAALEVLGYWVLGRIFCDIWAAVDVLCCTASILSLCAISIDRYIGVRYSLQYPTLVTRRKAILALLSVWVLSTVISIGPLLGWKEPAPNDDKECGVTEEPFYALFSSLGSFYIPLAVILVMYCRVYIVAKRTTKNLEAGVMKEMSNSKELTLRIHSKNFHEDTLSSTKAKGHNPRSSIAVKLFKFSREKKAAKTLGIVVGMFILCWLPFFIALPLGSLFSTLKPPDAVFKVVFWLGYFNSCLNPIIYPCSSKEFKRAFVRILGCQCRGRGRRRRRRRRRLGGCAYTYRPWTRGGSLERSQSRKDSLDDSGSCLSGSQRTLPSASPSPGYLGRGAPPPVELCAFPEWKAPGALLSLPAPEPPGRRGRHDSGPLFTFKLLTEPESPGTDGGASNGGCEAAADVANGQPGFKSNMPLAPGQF
As to the kind of experiment: Radioligand binding, [3H]prazosin, cloned human α1B adrenergic receptor. The gist of the method:
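[3H]prazosin (0.5 nM) binding was run for 20 min at 37° C in pH 7.5 Tris/MgCl2/ascorbate buffer on membranes of LM(tk−) cells stably expressing the cloned receptor. Filtration through GF/B ended the reaction; 10 μM phentolamine gave nonspecific binding.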

Where [2] appears, read: pKi alpha-1 1b, cloned human α1B receptor, LM(tk−) cell membranes.
Setting [3] is: cloned human receptor in LM(tk-) cell membranes, SEM and n in lines below, read-out: pKi alpha-1 1b (converted).
Where [4] appears, read: cloned human α1B receptor, LM(tk−) cell membranes, read-out: pKi alpha-1 1b (converted).
Where [5] appears, read: pKi alpha-1 1b, cloned human receptor in LM(tk-) cell membranes, SEM and n in lines below.

Structures can show the parent of a compound that is named as a salt. Where two headings read alike, the source gives them in different places.

In the case of `CCC1=C(C(=O)NCCCN2CCC(c3ccccc3)(c3ccccc3)CC2)C(c2ccc([N+](=O)[O-])cc2)C(C(N)=O)=C(COCCN=[N+]=[N-])N1` (centres unmarked) [Example 149, 2-((2-Azidoethyl)oxy)methyl-3-carboxamido-6-ethyl-1,4-dihydro-4-(4-nitro) phenyl-5-(N-(3-(4,4-diphenylpiperidin-1-yl)propyl))carboxamidopyridine], the melting point fell in the range of 87 to 91 °C. This compound had a Ki in data set [1] (setting [2]) of 245 nM.
Consider `COC(=O)C1=C(C)NC(C)=C(C(=O)NCCN2CCC(c3ccccc3)(c3ccccc3)CC2)C1c1ccc([N+](=O)[O-])cc1` (centres unmarked) [Example 52, 1,4-Dihydro-3-methoxycarbonyl-2,6-dimethyl-4-(4-nitrophenyl)-5-{N-[2-(4,4-diphenylpiperidin-1-yl)ethyl]}carboxamidopyridine hydrochloride hemihydrate], for which the Ki in data set [1] (setting [3]) is 77.6 nM.
Same read-out and setting: then `COC(=O)C1=C(C)NC(C)=C(C(=O)N(C)CCCN2CCC(c3ccccc3)(c3ccccc3)CC2)C1c1ccc([N+](=O)[O-])cc1` (centres unmarked) [Example 46, hydrochloride hemihydrate], with 240 nM.
In the case of `CCC1=C(C(N)=O)C(c2ccc([N+](=O)[O-])cc2)C(C(=O)NCCCN2CCC(c3ccc(OC)cc3)(c3ccc(OC)cc3)CC2)=C(CC)N1` (centres unmarked) [Example 103, 5-Carboxamido-2,6-diethyl-1,4-dihydro-3-{N-[3-(4,4-bis-(4-methoxyphenyl)piperidin-1-yl)propyl]}carboxamido}-4-(4-nitrophenyl)pyridine hydrochloride], the Ki in data set [1] (setting [4]) was 182 nM.
Same read-out and setting: then `CCC1=C(C(N)=O)C(c2ccc([N+](=O)[O-])cc2)C(C(=O)NCCCN2CCC3(CC2)C(=O)NCN3c2ccccc2)=C(CC)N1` (centres unmarked) [Example 105, 5-Carboxamido-2,6-diethyl-1,4-dihydro-4-(4-nitrophenyl)-3-{N-[3-(1-phenyl-4-oxo-1,3,8-triazaspiro[4.3]decan-8-yl)propyl]}carboxamidopyridine hydrochloride hydrate], with 3160 nM.
On to `COC(=O)C1=C(C)N(C)C(C)=C(C(=O)OCCCN2CCC(c3ccccc3)(c3ccccc3)CC2)C1c1ccc([N+](=O)[O-])cc1` (centres unmarked) [Example 92, 1,4-Dihydro-5-methoxycarbonyl-1,2,6-trimethyl-4-(4-nitrophenyl)-3-[3-(4,4-diphenylpiperidin-1-yl)propoxy]carbonylpyridine hydrochloride hydrate], for which the Ki in data set [1] (setting [4]) was 58.9 nM.
`COc1ccc(C2(c3ccccc3)CCN(CCCNC(=O)C3=C(C)NC(C)=C(C(N)=O)C3c3ccc([N+](=O)[O-])cc3)CC2)cc1` (centres unmarked) [Example 98, 5-Carboxamido-1,4-dihydro-3-{N-[3-(4-(4-methoxyphenyl)-4-phenylpiperidin-1-yl)propyl]}carboxamido-2,6-dimethyl-4-(4-nitrophenyl)pyridine hydrochloride] showed a Ki in data set [1] (setting [2]) of 302 nM.
On to `CC1=C(C(N)=O)C(c2ccc([N+](=O)[O-])cc2)C(C(=O)NCCN2CCC(c3ccccc3)(c3ccccc3)CC2)=C(C)N1` (centres unmarked) [Example 54, 5-Carboxamide-1,4-dihydro-2,6-dimethyl-4-(4-nitrophenyl)-3-{N-[2-(4,4-diphenylpiperidin-1-yl)ethyl]}carboxamidopyridine hydrochloride hydrate], for which the Ki in data set [1] (setting [5]) was 174 nM.
As for `CCC1=C(C(N)=O)C(c2ccc([N+](=O)[O-])cc2)C(C(=O)NCCCN2CCC(C#N)(c3ccccc3)CC2)=C(CC)N1` (single isomer, unassigned; (-)) [(−)-102], the Ki in data set [1] (setting [2]) is 3160 nM.
For `COC(=O)C1=C(C)NC(C)=C(C(=O)NCCCN2CCC(c3ccccc3)(c3ccccc3)CC2)C1c1ccc2ccccc2c1` (centres unmarked) [Example 22], the Ki in data set [1] (setting [3]) was 138 nM.
`CC1=C(C#N)C(c2ccc([N+](=O)[O-])cc2)C(C(=O)NCCCN2CCC(c3ccccc3)(c3ccccc3)CC2)=C(C)N1` (centres unmarked) [Example 37]: the Ki in data set [1] (setting [3]) is 200 nM.
The compound `CCC1=C(C(N)=O)C(c2ccc(S(C)(=O)=O)cc2)C(C(=O)NCCCN2CCC(c3ccccc3)(c3ccccc3)CC2)=C(CC)N1` (centres unmarked) [Example 116, 5-Carboxamido-2,6-diethyl-1,4-dihydro-4-(4-methanesulfonylphenyl)-3-(N-(3-(4,4-diphenylpiperidin-1-yl)propyl)carboxamido)-pyridine] had a Ki in data set [1] (setting [2]) of 759 nM.
Same read-out and setting: then `CCC1=C(C(=O)NCCCN2CCC(c3ccccc3)(c3ccccc3)CC2)C(c2ccc([N+](=O)[O-])cc2)C(C(=O)NC)=C(COCCN=[N+]=[N-])N1` (centres unmarked) [Example 151, 2-((2-Azidoethyl)oxy)methyl-6-ethyl-1,4-dihydro-3-(N-methyl)carboxamido-4-(4-nitro)phenyl-5-(N-(3-(4,4-diphenylpiperidin-1-yl)propyl))carboxamidopyridine], with 355 nM.
For `CCOC(=O)C1=C(CC(=O)NCCCN2CCC(c3ccccc3)(c3ccccc3)CC2)NC(C)=C(C(=O)OC)C1c1ccc([N+](=O)[O-])cc1` (centres unmarked) [Example 89, 3-Ethoxycarbonyl-1,4-dihydro-5-methoxycarbonyl-6-methyl-4-(4-nitro)phenyl-2-(N-(3-(4,4,-diphenylpiperidin-1-yl)propyl)carboxamido)methylpyridine, fumarate salt], the Ki in data set [1] (setting [4]) is 141 nM.
As to `COC(=O)C1=C(C)NC(c2ccccc2)=C(C(=O)NCCCN2CCC(c3ccccc3)(c3ccccc3)CC2)C1c1ccc([N+](=O)[O-])cc1` (centres unmarked) [Example 78, 1,4-Dihydro-5-methoxycarbonyl-6-methyl-4-(4-nitro)phenyl-2-phenyl-3-(N-(3-(4,4-diphenylpiperidin-1-yl)propyl))carboxamidopyridine hydrochloride hydrate], the Ki in data set [1] (setting [3]) was 110 nM.
`CCC1=C(C(N)=O)C(c2ccc([N+](=O)[O-])cc2)C(C(=O)NCCCN2CCC(C#N)(c3ccccc3)CC2)=C(CC)N1` (racemic) [(±)-102, 5-Carboxamido-3-{N-[(4-cyano-4-phenylpiperidin-1-ly)propyl]carboxamido-2,6-diethyl-1,4-dihydro-4-(4-nitrophenyl)pyridine hydrochloride hydrate] had a Ki in data set [1] (setting [2]) of 1620 nM.
Take `CCC1=C(C(N)=O)C(c2ccc([N+](=O)[O-])cc2)C(C(=O)NCCCN2CCN(c3ccccc3OC)CC2)=C(CC)N1` (centres unmarked) [Example 125, 5-Carboxamido-2,6-diethyl-1,4-dihydro-3-(N-{3-[4-(2-methoxyphenyl)piperazin-1-yl]propyl})carboxamido-4-(4-nitrophenyl)pyridine]: the Ki in data set [1] (setting [4]) was 129 nM.
Turning to `CCC1=C(C(N)=O)C(c2ccc([N+](=O)[O-])cc2)C(C(=O)NCCCN2CCC(C)(c3ccccc3)CC2)=C(CC)N1` (centres unmarked) [Example 106, 5-Carboxamido-2,6-diethyl-1,4-dihydro-3-{N-[3-(4-Methyl-4-phenylpiperidin-1-yl)propyl]}carboxamido-4-(4-nitrophenyl)pyridine hydrochloride hydrate], the Ki in data set [1] (setting [2]) is 933 nM.
On the same count and under the same terms, then `CC1=C(C(=O)NCCCN2CCC(c3ccccc3)(c3ccccc3)CC2)C(c2ccc([N+](=O)[O-])cc2)C(C(=O)OCCC#N)=C(C)N1` (centres unmarked) [Example 160], with 138 nM.
Regarding `CCC1=C(C(=O)OCCC#N)C(c2ccc([N+](=O)[O-])cc2)C(C(=O)NCCCN2CCC(c3ccccc3)(c3ccccc3)CC2)=C(COC)N1` (centres unmarked) [Example 135], the Ki in data set [1] (setting [4]) was 178 nM.
Regarding `CCC1=C(C(=O)NCCCN2CCC(c3ccccc3)(c3ccccc3)CC2)C(c2ccc([N+](=O)[O-])cc2)C(C(=O)OCc2ccccc2)=C(C)N1` (centres unmarked) [Example 4, 5-Benzyloxycarbonyl-2-ethyl-1,4-dihydro-6-methyl-4-(4-nitrophenyl)-3-(N-(3-(4,4-diphenylpiperidin-1-yl)propyl)carboxamido) pyridine, Hydrochloride Salt, Hydrate], in data set [1] (setting [5]), the Ki was 129 nM.
The same measure, in the same setting: as for `COC(=O)C1=C(C)NC(c2ccoc2)=C(C(=O)NCCCN2CCC(c3ccccc3)(c3ccccc3)CC2)C1c1ccc([N+](=O)[O-])cc1` (centres unmarked) [Example 43, 2-(Furan-3-yl)-, 4-dihydro-5-methoxycarbonyl-6-methyl-4-(4-nitrophenyl)-3-(N-(3-(4,4-diphenylpiperidin-1-yl)propyl)carboxamidopyridine, hydrochloride salt], the figure is 182 nM.
Turning to `CCC1=C(C(N)=O)C(c2ccc([N+](=O)[O-])cc2)C(C(=O)NCCCN2CCC(O)(c3ccccc3)CC2)=C(CC)N1` (centres unmarked) [Example 100, 5-Carboxamido-2,6-diethyl-1,4-dihydro-3-{N-(3-(4-hydroxy-4-phenylpiperidin-1-yl)propyl]}carboxamido-4-(4-nitrophenyl)pyridine hydrochloride hydrate], the Ki in data set [1] (setting [2]) was 1480 nM.
For `COC(=O)C1=C(C)NC(C)=C(C(=O)NCCCN2CCC(c3ccccc3)(c3ccccc3)CC2)C1c1ccc([N+](=O)[O-])c(C)c1` (centres unmarked) [Example 28], in data set [1] (setting [5]), the Ki was 240 nM.
Regarding `CCC1=C(C(=O)NCCCN2CCC(c3ccccc3)(c3ccccc3)CC2)C(c2ccc(N)cc2)C(C(=O)OC)=C(C)N1` (centres unmarked) [Example 114, 4-(4-Aminophenyl)-2-ethyl-1,4-dihydro-5-methoxycarbonyl-6-methyl-3-(N-(3-(4,4-diphenylpiperidin-1-yl)propyl)carboxamido)-pyridine], the Ki in data set [1] (setting [4]) was 204 nM.

Usually melting point stands for the temperature of the solid-liquid transition.
